The values below come from patent US20260272943A1, “Acyl Ethyl Ester Polycyclic Compound, and Pharmaceutical Composition and Use Thereof” (priority 2023, published 2026).

Values after ≈ are worked out from the molar mass of the structure shown.

The subject of data set [1] is H1N1 influenza A virus strain A/FM/1/47. In words: Anti-influenza virus activity in vitro (inhibition of virus replication in MDCK cells). Format: cell-based. The conditions noted are these: 72 h, read-out: EC50 for in vitro inhibition of replication of H1N1 (FM1) influenza virus.
A short description of data set [2]: PK study in rats, single oral gavage. In kind it is in vivo. The following applies: SD rats, single oral gavage 3.0 mg/kg. The method, then:
SD rats were administered in a single oral gavage administration with different groups of drugs, including compound I-1-1-2, compound I-1-1-3, compound I-1-1-6, compound I-20, compound II-5, and Baloxavir Marboxil. After administration, plasma at different time points were collected to detect the drug content, and the pharmacokinetic parameters of different groups of drugs in SD rats were calculated and compared.
48 SD rats, weighing 180 g-220 g, with half male and half female, were randomly assigned to 6 groups according to their body weight, with 8 rats in each group. Animal grouping information was as follows:
(§1) After SD rats were randomly assigned to groups, they were fasted for more than 12 hours before administration and were allowed to drink water freely. Drinking water was prohibited from 1 hour before administration to 1 hour after administration. Food was provided 4 hours after administration. Each group was administered with a single oral gavage dose of 3.0 mg/kg. Approximately 0.2 mL of jugular vein blood was collected at 0 h before administration and 5 min, 10 min, 15 min, 30 min, 1 h, 2 h, 4 h, 6 h, 10 h, 24 h and 30 h after administration, and placed in EDTA-K2 anticoagulation tubes.
(§2) After the whole blood was collected, the plasma was separated by centrifugation at 4000 rpm for 10 min at 4° C., and then stored in a refrigerator at −80° C. for testing. The plasma drug concentration of samples in each group was determined by LC-MS/MS.
PK parameters were calculated using a non-compartmental model in Phoenix winnonlin 8.0. Data analysis included Cmax, Tmax, AUC0-t, AUC0-∞∞, t1/2 and other pharmacokinetic parameters.

Data set [3] can be described thus: PK study in cynomolgus monkeys, single oral gavage. The conditions noted are these: single oral gavage 5.0 mg/kg. Format: in vivo. The method, then: Cynomolgus monkeys were administered with a single oral gavage with different groups of drugs, including compound I-1-1-2, compound I-1-1-3 and Baloxavir Marboxil. After administration, plasma at different time points were collected to detect the drug content, and the pharmacokinetic parameters of different groups of drugs in cynomolgus monkeys were calculated and compared.
24 cynomolgus monkeys, aged 3-5 years old and weighing 3 kg-7 kg, with half male and half female, were used and randomly assigned to 3 groups according to their body weight, with 8 monkeys in each group. Animal grouping information was as follows:
as §1, with “After cynomolgus monkeys” for “After SD rats”, “of 5.0” for “of 3.0”, “Approximately 1.0” for “Approximately 0.2”, “h, 8 h, 12” for “h, 10”, “24 h, and 48” for “24”, “h (D2)” for “h and 30 h”
as §2
PK parameters were calculated using non-compartmental model in a Phoenix winnonlin 8.0. Data analysis included Cmax, Tmax, AUC0-t, AUC0-∞∞, t1/2 and other pharmacokinetic parameters.

Broadly, the EC50 is the midpoint of the concentration-response curve. Consider `COC(=O)OCOc1c2n(ccc1=O)N([C@@H]1c3ccccc3SCc3c1ccc(F)c3F)[C@@H]1COCCN1C2=O` [Baloxavir Marboxil, reference compound], for which the EC50 in data set [1] was 0.32 µg/mL (≈ 0.56 µM). Besides, the “Bioavailability (Cmax and AUC0-t) compared with Compound I-20 and Compound II-5 groups” value in data set [2] is “significantly improved”.
With `CC(=O)OC(C)Oc1c2n(ccc1=O)N([C@@H]1c3ccccc3[Se]Cc3c1ccc(F)c3F)[C@@H]1COCCN1C2=O` (some centres unmarked) [Compound I-1-1-6], the EC50 in data set [1] came out at 0.32 µg/mL (≈ 0.519 µM).
As to `CC(=O)OCOc1c2n(ccc1=O)N([C@@H]1c3ccccc3SCc3c1ccc(F)c3F)[C@@H]1COCCN1C2=O` [Compound II-5, reference compound], the EC50 in data set [1] is 0.32 µg/mL (≈ 0.576 µM).
`CC(=O)O[C@@H](C)Oc1c2n(ccc1=O)N([C@@H]1c3ccccc3SCc3c1ccc(F)c3F)[C@@H]1COCCN1C2=O` [Compound I-1-1-1]: the EC50 in data set [1] stood at 0.32 µg/mL (≈ 0.562 µM).
The same measure, in the same setting: the figure for `[2H]C([2H])([2H])C(=O)OC(C)Oc1c2n(ccc1=O)N([C@@H]1c3ccccc3SCc3c1ccc(F)c3F)[C@@H]1COCCN1C2=O` (some centres unmarked) [Compound I-20, reference compound] is 0.32 µg/mL (≈ 0.559 µM).
Turning to `CC(=O)OC(C)Oc1c2n(ccc1=O)N([C@@H]1c3ccccc3SCc3c1ccc(F)c3F)[C@@H]1COCCN1C2=O` (some centres unmarked) [Compound I-1-1-3], the EC50 in data set [1] amounted to 0.32 µg/mL (≈ 0.562 µM). Moreover, the “Bioavailability (Cmax and AUC0-t) compared with Baloxavir Marboxil group” value in data set [3] and in data set [2] was “significantly improved” throughout. Besides, the “Bioavailability (Cmax and AUC0-t) compared with Compound I-20 and Compound II-5 groups” value in data set [2] is recorded as “significantly improved”.
Take `CC(=O)O[C@H](C)Oc1c2n(ccc1=O)N([C@@H]1c3ccccc3SCc3c1ccc(F)c3F)[C@@H]1COCCN1C2=O` [Compound I-1-1-2]: the EC50 in data set [1] amounted to 0.032 µg/mL (≈ 0.0562 µM). In data set [3], the “Bioavailability (Cmax and AUC0-t) compared with Baloxavir Marboxil group” value is “significantly improved”; the “Exposure rank among groups” value was “highest exposure”; the “Half-life rank among groups” value is given as “longest half-life”. Moreover, in data set [2], the “Bioavailability (Cmax and AUC0-t) compared with Baloxavir Marboxil group” value is given as “significantly improved”; the “Bioavailability (Cmax and AUC0-t) compared with Compound I-20 and Compound II-5 groups” value is recorded as “significantly improved”; the “Half-life (t1/2) rank among groups” value is “longest half-life”.
